According to ChEMBL document CHEMBL1799927, “Discovery of imidazo[1,2-a]pyrazine-based Aurora kinase inhibitors” (Bioorg Med Chem Lett, 2010):
pEC50, pIC50: −log10 of the molar value. Converted amounts (≈) assume the structure as drawn.

Legend:
cells = assay type: cell-based; settings: Homo sapiens, HCT-116, 1 h
Aurora kinase B = Aurora kinase B (Homo sapiens, UniProt Q96GD4); assay: Inhibition of aurora B kinase using 5TAMRA-GRTGRRNSICOOH as substrate by fluorescent assay; settings: for pIC50: read-out: IC50
Chain of Aurora kinase B (Q96GD4 whole entry): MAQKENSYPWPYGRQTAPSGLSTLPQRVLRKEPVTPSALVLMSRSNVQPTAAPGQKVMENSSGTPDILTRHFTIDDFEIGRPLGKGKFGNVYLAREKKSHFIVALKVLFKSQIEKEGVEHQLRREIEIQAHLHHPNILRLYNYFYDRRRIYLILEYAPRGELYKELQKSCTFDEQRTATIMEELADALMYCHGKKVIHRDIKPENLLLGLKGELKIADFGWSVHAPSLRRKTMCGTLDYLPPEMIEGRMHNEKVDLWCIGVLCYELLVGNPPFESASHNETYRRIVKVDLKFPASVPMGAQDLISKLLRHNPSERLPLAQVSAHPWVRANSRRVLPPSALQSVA

Aurora kinase A = biological target: T1, Aurora kinase A (Homo sapiens, UniProt O14965); assay: Inhibition of aurora A kinase using 5TAMRA-GRTGRRNSICOOH as substrate by fluorescent assay
T1 sequence (O14965 whole entry): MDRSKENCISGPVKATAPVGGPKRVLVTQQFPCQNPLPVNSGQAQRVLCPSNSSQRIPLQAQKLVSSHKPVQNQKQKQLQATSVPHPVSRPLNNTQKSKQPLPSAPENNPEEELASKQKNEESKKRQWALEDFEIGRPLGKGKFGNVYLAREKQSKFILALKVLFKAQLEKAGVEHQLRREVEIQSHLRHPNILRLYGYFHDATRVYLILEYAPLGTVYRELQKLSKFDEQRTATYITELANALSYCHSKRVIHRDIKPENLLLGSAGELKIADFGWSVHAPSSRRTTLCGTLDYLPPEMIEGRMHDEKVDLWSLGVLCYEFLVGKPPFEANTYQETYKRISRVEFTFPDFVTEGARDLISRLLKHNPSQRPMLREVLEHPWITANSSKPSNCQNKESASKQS

[1] = biological target: Testis-specific serine/threonine-protein kinase 2 (Homo sapiens, UniProt Q96PF2); assay: Inhibition of TSSK2
Chain of Testis-specific serine/threonine-protein kinase 2 (Q96PF2 whole entry): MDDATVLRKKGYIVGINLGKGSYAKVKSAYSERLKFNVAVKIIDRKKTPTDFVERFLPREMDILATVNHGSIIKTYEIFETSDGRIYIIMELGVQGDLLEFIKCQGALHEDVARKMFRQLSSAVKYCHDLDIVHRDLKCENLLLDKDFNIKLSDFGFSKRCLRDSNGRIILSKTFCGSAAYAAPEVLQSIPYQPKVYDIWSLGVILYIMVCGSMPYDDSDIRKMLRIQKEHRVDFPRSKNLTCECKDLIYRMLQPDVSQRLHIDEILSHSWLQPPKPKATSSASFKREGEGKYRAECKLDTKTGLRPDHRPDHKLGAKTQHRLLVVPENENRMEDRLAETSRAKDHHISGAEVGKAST

Cytochrome P450 2C9 = Cytochrome P450 2C9 (Homo sapiens, UniProt P11712); assay: inhibition of CYP2C9; assay type: ADME
Chain of Cytochrome P450 2C9 (P11712 whole entry): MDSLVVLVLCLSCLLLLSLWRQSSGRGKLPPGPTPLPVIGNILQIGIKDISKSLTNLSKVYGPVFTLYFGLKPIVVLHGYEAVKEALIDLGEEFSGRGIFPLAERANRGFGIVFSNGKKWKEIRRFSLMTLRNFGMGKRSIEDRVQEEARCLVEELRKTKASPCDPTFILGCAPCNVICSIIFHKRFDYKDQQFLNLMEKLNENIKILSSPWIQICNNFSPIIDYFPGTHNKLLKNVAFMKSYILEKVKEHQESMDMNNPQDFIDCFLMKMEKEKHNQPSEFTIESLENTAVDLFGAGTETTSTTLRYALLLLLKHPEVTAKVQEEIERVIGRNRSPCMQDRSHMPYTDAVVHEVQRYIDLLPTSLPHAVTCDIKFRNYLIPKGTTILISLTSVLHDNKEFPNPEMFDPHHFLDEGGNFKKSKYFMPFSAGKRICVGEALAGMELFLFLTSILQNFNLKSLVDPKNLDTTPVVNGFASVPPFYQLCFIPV

[2] = Clearance in mouse; assay type: ADME, organism-based; settings: in vivo
[3] = biological target: Serine/threonine-protein kinase 3 (Homo sapiens, UniProt Q13188); assay: Inhibition of MST2
Chain of Serine/threonine-protein kinase 3 (Q13188 whole entry): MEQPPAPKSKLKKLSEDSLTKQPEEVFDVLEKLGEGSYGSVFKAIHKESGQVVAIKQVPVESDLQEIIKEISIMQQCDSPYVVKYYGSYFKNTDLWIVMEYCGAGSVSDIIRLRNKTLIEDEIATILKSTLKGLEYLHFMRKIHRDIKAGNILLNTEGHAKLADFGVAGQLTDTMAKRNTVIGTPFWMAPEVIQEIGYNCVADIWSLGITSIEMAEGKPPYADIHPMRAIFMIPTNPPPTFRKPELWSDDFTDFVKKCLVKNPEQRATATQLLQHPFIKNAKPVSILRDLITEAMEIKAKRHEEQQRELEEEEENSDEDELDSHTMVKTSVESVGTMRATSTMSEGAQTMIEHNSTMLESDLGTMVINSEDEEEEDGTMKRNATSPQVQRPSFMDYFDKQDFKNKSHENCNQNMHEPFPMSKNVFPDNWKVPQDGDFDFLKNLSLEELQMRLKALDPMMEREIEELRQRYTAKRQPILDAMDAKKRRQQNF

[4] = biological target: Tyrosine-protein kinase JAK2 (Homo sapiens, UniProt O60674); assay: Inhibition of Jak2
[5] = Clearance in human hepatocytes assessed per million cells; assay type: ADME, cell-based, Liver, Hepatocyte
Cytochrome P450 2D6 = Cytochrome P450 2D6 (Homo sapiens, UniProt P10635); assay: inhibition of CYP2D6; assay type: ADME
Chain of Cytochrome P450 2D6 (P10635 whole entry): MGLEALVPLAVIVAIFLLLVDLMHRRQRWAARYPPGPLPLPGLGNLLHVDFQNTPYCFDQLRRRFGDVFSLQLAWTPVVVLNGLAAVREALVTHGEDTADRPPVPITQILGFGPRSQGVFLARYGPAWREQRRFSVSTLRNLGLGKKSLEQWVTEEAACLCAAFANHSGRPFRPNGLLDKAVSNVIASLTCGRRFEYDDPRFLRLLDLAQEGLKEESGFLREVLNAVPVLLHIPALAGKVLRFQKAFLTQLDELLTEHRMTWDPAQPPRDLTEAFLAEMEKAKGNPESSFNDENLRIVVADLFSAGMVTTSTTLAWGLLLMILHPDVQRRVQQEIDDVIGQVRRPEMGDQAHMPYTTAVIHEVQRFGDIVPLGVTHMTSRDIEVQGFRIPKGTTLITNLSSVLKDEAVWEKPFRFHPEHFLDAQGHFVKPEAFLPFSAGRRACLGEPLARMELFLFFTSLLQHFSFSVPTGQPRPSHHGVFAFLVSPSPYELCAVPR

[6] = Permeability across apical to basolateral side in human Caco2 cell membrane; assay type: ADME, cell-based; settings: Caco-2, read-out: permeability
[7] = biological target: Hepatocyte growth factor receptor (Homo sapiens, UniProt P08581); assay: Inhibition of cMet
[8] = biological target: Serine/threonine-protein kinase Chk1 (Homo sapiens, UniProt O14757); assay: Inhibition of Chk1
[9] = Aqueous solubility of the compound; assay type: physicochemical; settings: buffer
Cytochrome P450 3A4 = Cytochrome P450 3A4 (Homo sapiens, UniProt P08684); assay: inhibition of CYP3A4; assay type: ADME
[10] = biological target: Interleukin-1 receptor-associated kinase 4 (Homo sapiens, UniProt Q9NWZ3); assay: Inhibition of IRAK4
Chain of Interleukin-1 receptor-associated kinase 4 (Q9NWZ3 whole entry): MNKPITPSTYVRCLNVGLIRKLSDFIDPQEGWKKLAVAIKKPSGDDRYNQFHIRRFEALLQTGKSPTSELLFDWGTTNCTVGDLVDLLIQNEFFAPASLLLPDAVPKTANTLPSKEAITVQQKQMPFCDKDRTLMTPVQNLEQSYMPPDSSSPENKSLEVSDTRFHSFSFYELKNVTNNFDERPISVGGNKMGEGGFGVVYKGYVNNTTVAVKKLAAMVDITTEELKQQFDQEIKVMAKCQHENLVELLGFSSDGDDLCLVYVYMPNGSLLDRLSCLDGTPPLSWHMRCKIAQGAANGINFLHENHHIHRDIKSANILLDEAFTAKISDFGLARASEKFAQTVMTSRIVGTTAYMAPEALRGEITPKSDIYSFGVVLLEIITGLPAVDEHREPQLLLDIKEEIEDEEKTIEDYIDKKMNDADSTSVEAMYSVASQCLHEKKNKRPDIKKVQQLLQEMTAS

[11] = biological target: RAC-alpha serine/threonine-protein kinase (Homo sapiens, UniProt P31749); assay: Inhibition of Akt1
Chain of RAC-alpha serine/threonine-protein kinase (P31749 whole entry): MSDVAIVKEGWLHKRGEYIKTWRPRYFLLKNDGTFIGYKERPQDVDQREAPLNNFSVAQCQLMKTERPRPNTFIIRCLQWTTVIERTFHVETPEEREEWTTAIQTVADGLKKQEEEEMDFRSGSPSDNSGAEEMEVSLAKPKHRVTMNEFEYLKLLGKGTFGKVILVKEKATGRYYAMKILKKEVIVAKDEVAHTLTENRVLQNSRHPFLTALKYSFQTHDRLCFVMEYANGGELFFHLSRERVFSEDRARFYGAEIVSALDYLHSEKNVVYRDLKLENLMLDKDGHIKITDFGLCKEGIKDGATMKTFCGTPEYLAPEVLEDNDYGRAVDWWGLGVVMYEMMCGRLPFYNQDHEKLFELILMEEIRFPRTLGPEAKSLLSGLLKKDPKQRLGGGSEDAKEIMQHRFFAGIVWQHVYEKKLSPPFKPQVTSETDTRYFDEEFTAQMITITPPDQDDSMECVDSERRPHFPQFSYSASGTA

hERG (KCNH2) = hERG (KCNH2) (Homo sapiens, UniProt Q12809); assay: Inhibition of human ERG assessed as Rb efflux at 1.5 ug/ml
[12] = biological target: Mitogen-activated protein kinase 1 (Homo sapiens, UniProt P28482); assay: Inhibition of ERK2
[13] = biological target: Protein kinase C alpha type (Homo sapiens, UniProt P17252); assay: Inhibition of PKCa
[14] = Oral bioavailability in mouse; assay type: ADME, organism-based; settings: in vivo
[15] = biological target: Inhibitor of nuclear factor kappa-B kinase subunit beta (Homo sapiens, UniProt O14920); assay: Inhibition of IKKb
[16] = biological target: Rho-associated protein kinase 2 (Homo sapiens, UniProt O75116); assay: Inhibition of Rock2
[17] = biological target: Ribosomal protein S6 kinase alpha-3 (Homo sapiens, UniProt P51812); assay: Inhibition of RSK2
Chain of Ribosomal protein S6 kinase alpha-3 (P51812 whole entry): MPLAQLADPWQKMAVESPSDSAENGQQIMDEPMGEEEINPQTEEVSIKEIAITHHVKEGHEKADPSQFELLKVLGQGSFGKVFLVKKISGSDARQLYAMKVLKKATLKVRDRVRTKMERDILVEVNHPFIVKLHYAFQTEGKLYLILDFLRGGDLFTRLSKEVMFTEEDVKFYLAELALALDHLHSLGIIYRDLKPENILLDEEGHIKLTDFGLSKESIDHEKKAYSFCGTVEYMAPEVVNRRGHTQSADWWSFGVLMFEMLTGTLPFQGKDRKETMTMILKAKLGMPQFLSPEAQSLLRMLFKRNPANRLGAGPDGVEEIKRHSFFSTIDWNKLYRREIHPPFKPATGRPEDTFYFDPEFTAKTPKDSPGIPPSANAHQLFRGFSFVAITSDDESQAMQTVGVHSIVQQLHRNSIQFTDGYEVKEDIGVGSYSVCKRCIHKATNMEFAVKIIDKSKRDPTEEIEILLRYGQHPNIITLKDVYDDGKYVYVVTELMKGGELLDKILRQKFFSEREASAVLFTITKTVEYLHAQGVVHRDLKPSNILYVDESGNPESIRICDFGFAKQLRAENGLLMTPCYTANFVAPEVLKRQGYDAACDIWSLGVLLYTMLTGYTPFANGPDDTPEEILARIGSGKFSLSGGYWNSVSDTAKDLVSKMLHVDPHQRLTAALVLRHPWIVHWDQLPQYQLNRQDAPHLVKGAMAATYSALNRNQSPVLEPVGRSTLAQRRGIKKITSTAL

[18] = biological target: Tyrosine-protein kinase Lck (Homo sapiens, UniProt P06239); assay: Inhibition of LCK
[19] = biological target: Vascular endothelial growth factor receptor 2 (Homo sapiens, UniProt P35968); assay: Inhibition of VEGFR2
[20] = Inhibition of IGRF
[21] = biological target: Calcium/calmodulin-dependent protein kinase type IV (Homo sapiens, UniProt Q16566); assay: Inhibition of Camk4
Chain of Calcium/calmodulin-dependent protein kinase type IV (Q16566 whole entry): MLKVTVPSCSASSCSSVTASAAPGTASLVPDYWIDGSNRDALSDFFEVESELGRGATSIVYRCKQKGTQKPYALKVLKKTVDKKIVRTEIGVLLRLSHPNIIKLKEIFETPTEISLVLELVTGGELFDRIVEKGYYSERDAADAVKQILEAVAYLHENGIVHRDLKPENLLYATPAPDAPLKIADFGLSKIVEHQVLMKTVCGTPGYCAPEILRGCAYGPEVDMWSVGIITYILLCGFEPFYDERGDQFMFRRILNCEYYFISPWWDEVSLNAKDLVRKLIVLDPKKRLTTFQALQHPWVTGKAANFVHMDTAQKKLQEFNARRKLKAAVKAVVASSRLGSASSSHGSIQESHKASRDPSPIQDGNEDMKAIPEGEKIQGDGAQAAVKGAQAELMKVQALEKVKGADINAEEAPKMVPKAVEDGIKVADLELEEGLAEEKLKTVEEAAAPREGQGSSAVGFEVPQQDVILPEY

[22] = biological target: Serine/threonine-protein kinase PLK3 (Homo sapiens, UniProt Q9H4B4); assay: Inhibition of PLK3
Chain of Serine/threonine-protein kinase PLK3 (Q9H4B4 whole entry): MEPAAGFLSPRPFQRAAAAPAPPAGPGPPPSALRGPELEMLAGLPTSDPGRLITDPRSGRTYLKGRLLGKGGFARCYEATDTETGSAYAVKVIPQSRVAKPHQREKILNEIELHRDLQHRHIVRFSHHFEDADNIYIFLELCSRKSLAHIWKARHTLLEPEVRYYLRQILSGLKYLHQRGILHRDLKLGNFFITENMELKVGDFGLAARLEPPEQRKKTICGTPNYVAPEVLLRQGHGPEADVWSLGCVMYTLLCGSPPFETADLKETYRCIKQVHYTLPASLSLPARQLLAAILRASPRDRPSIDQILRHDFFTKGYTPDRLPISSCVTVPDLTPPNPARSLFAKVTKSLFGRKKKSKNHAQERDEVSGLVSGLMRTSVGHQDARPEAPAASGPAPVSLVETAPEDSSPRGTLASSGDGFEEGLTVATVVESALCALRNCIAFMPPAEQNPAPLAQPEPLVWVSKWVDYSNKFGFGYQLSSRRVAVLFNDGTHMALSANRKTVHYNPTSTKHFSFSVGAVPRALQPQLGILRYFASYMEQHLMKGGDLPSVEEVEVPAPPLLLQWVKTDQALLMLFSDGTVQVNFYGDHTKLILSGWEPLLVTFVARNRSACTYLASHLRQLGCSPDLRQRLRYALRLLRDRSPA

[23] = Plasma protein binding in human; assay type: ADME, cell-free; settings: read-out: PPB (converted)

SMILES: Cc1cc(Nc2nccn3c(-c4cn[nH]c4)cnc23)sn1
- pEC50 (cells): 5.89
- pIC50 (Aurora kinase B): ≥ 7.89
- pIC50 (Aurora kinase A): ≥ 8.40

SMILES: CSc1cn2c(-c3cn[nH]c3)cnc2c(Nc2cc(C)ns2)n1
- pIC50 [1]: < 5.00
- INH (Cytochrome P450 2C9): > 20 µM
- pEC50 (cells): 6.22
- clearance [2]: 89 mL/min/kg
- pIC50 [3]: < 5.00
- pIC50 [4]: < 5.00
- hepatocyte CLint [5]: 49.7 µL/min/1e6 cells
- INH (Cytochrome P450 2D6): > 20 µM
- pIC50 (Aurora kinase B): ≥ 7.89
- Papp A→B [6]: 63.3 ×10⁻⁶ cm/s
- pIC50 [7]: < 5.00
- pIC50 [8]: 6.73
- solubility [9]: 25 µM (≈ 8.59 µg/mL)
- INH (Cytochrome P450 3A4): > 20 µM
- pIC50 [10]: 6.78
- pIC50 [11]: < 5.00
- inhibition at 1.5 ug/ml (hERG (KCNH2)): 8.7%
- pIC50 [12]: < 5.00
- pIC50 [13]: < 5.00
- bioavailability [14]: 4%
- pIC50 [15]: < 5.00
- pIC50 [16]: < 5.00
- pIC50 [17]: 5.88
- pIC50 [18]: 6.33
- pIC50 [19]: 7.44
- pIC50 [20]: < 5.00
- pIC50 [21]: < 5.00
- pIC50 [22]: 6.11
- fraction unbound [23]: 0.006

SMILES: Cc1cc(Nc2nc(C)cn3c(-c4cn[nH]c4)cnc23)sn1
- pEC50 (cells): 6.60
- pIC50 (Aurora kinase B): ≥ 7.89

SMILES: Cc1cc(Nc2nc(-c3cccnc3)cn3c(-c4cn[nH]c4)cnc23)sn1
- pEC50 (cells): < 5.00
- pIC50 (Aurora kinase B): 7.21
- pIC50 (Aurora kinase A): 8.10

SMILES: Cc1cc(Nc2nccn3c(-c4cnn(C)c4)cnc23)sn1
- pIC50 (Aurora kinase B): 6.44
- pIC50 (Aurora kinase A): 6.24

SMILES: CC(C)c1cc(Nc2nccn3c(-c4cnn(C)c4)cnc23)sn1
- pIC50 (Aurora kinase B): 6.15
- pIC50 (Aurora kinase A): 6.19

SMILES: Cn1cc(-c2cnc3c(Nc4cc(C5CCNCC5)ns4)nccn23)cn1
- pIC50 (Aurora kinase B): 6.70
- pIC50 (Aurora kinase A): 5.80

SMILES: Cn1cc(-c2cnc3c(Nc4cc(C5CCN(S(C)(=O)=O)CC5)ns4)nccn23)cn1
- pIC50 (Aurora kinase B): 6.96
- pIC50 (Aurora kinase A): 6.77

SMILES: Cc1nsc(Nc2nccn3c(-c4cnn(C)c4)cnc23)n1
- IC50 (Aurora kinase B): Not Active
- pIC50 (Aurora kinase A): < 5.00

SMILES: Cc1csc(Nc2nccn3c(-c4cnn(C)c4)cnc23)n1
- IC50 (Aurora kinase B): Not Active
- pIC50 (Aurora kinase A): < 5.00

SMILES: Cc1csc(Nc2nccn3c(-c4cnn(C)c4)cnc23)c1
- pIC50 (Aurora kinase B): 5.52
- pIC50 (Aurora kinase A): 5.60

SMILES: CN(C)c1cccc(Nc2nccn3c(-c4cnn(C)c4)cnc23)c1
- IC50 (Aurora kinase B): Not Active
- pIC50 (Aurora kinase A): < 5.00

SMILES: CN(C)S(=O)(=O)c1ccc(Nc2nccn3c(-c4cnn(C)c4)cnc23)cc1
- IC50 (Aurora kinase B): Not Active
- pIC50 (Aurora kinase A): 5.43

SMILES: CS(=O)(=O)N1CCC(c2cc(Nc3nccn4c(-c5cn[nH]c5)cnc34)sn2)CC1
- pEC50 (cells): 5.89
- pIC50 (Aurora kinase B): 7.74
- pIC50 (Aurora kinase A): 8.22

SMILES: O=S(=O)(c1ccc(Nc2nccn3c(-c4cn[nH]c4)cnc23)cc1)N1CCOCC1
- pIC50 (Aurora kinase B): 6.92
- pIC50 (Aurora kinase A): 7.09

SMILES: Cc1cc(Nc2nc(CN3CCOCC3)cn3c(-c4cn[nH]c4)cnc23)sn1
- pEC50 (cells): < 5.00
- pIC50 (Aurora kinase B): 6.96
- pIC50 (Aurora kinase A): 7.30

SMILES: Cc1cc(Nc2nc(C(F)(F)F)cn3c(-c4cn[nH]c4)cnc23)sn1
- pEC50 (cells): < 5.00
- pIC50 (Aurora kinase B): 6.60
- pIC50 (Aurora kinase A): 7.57

SMILES: CCc1cn2c(-c3cn[nH]c3)cnc2c(Nc2cc(C)ns2)n1
- pEC50 (cells): 6.07
- pIC50 (Aurora kinase B): ≥ 7.89

SMILES: Cc1cc(Nc2nc(CCN)cn3c(-c4cn[nH]c4)cnc23)sn1
- pEC50 (cells): < 5.00
- pIC50 (Aurora kinase B): 7.48
- pIC50 (Aurora kinase A): 7.08

SMILES: Cc1cc(Nc2nc(C3CC3)cn3c(-c4cn[nH]c4)cnc23)sn1
- pEC50 (cells): 5.59
- pIC50 (Aurora kinase B): 7.29
- pIC50 (Aurora kinase A): 7.77

SMILES: Cc1cc(Nc2nc(C#N)cn3c(-c4cn[nH]c4)cnc23)sn1
- pEC50 (cells): < 5.00
- pIC50 (Aurora kinase B): 6.66
- pIC50 (Aurora kinase A): 7.34

SMILES: Cc1cc(Nc2nc(S(C)(=O)=O)cn3c(-c4cn[nH]c4)cnc23)sn1
- pIC50 (Aurora kinase B): < 5.52
- pIC50 (Aurora kinase A): 6.22

SMILES: CCSc1cn2c(-c3cn[nH]c3)cnc2c(Nc2cc(C)ns2)n1
- pIC50 (Aurora kinase B): 7.62

SMILES: Cc1cc(Nc2nc(SCCN(C)C)cn3c(-c4cn[nH]c4)cnc23)sn1
- pEC50 (cells): < 5.00

SMILES: Cc1cc(Nc2nc(SC(C)(C)C)cn3c(-c4cn[nH]c4)cnc23)sn1
- pEC50 (cells): 5.25
- pIC50 (Aurora kinase B): 6.57

SMILES: Cc1cc(Nc2nc(Sc3ccc(F)cc3)cn3c(-c4cn[nH]c4)cnc23)sn1
- pEC50 (cells): 5.60
- pIC50 (Aurora kinase B): 6.89

SMILES: Cc1cc(Nc2nc([S+](C)[O-])cn3c(-c4cn[nH]c4)cnc23)sn1 (racemic)
- pEC50 (cells): < 5.00
- pIC50 (Aurora kinase B): 6.73
- pIC50 (Aurora kinase A): 7.52
